Experiments:
[1] = biological target: T1, CDK2 (Homo sapiens, UniProt P24941); test: CDK2 HTRF assay: cellular endogenous CDK2 level in OVCAR3 cells; format: cell-based; settings: 24 hours compound treatment; for DC50: read-out: DC50 (half maximal degradation concentration of CDK2)
T1 construct: High-Throughput Measurement of Cellular Endogenous CDK2; endogenous in cells; host or cells: OVCAR3
Description: Effects of compounds on cellular CDK2 level can be monitored by a high-throughput HTRF assay or traditional Western Blot assay.
To determine half maximal degradation concentration (DC50) values of compounds, cellular CDK2 level was measured in 96-well format using HTRF total CDK2 cellular kit (Cat #64CDK2TPEG) from Cisbio.
On Day 1, OVCAR3 cells were seeded into 96-well tissue-culture treated plates at 20,000 cells/well in 200 μL and incubated overnight at 37° C. in CO2 atmosphere. On Day 2 cells were treated with compounds at concentration ranging from 0.3 to 10,000 nM using HP D300 digital dispenser. 24 hours after compound treatment, cell culture media was removed by flicking the plate and tapping the plate against clean paper towel. Immediately 30 μL 1× lysis buffer was supplemented from the kit and the plate was incubated at room temperature on shaker for 30 min. After homogenization by pipetting up and down, 8 μL cell lysate from 96-well cell culture plate was transferred to 384-well small volume white detection plate. 2 μL premixed detection solution was added and the plate was covered with sealer. To prepare the detection solution, d2 conjugated-CDK2 antibody and Eu-cryptate conjugated CDK2 antibody were diluted into detection buffer following manufacturer's instruction. Detection plates were incubated overnight at room temperature and read on ClarioStar (BMG Labtech) in TR-FRET mode (665 nM and 620 nM). The TR-FRET ratio (665 nM/620 nM) was plotted against the compound concentration and normalized to DMSO controls. Half maximal degradation concentration (DC50) values were calculated with a four-parameter logistic fit using GraphPad Prism (version 8; La Jolla, CA).
In the table below, A indicates a DC50 of less than 0.1 μM; B indicates a DC50 of greater than or equal to 0.1 μM but less than 0.5 μM; C indicates a DC50 of greater than or equal to 0.5 μM but less than 1 μM; and D indicates a DC50 of greater than or equal to 1 μM but less than 10 μM.

[2] = biological target: T1, CDK2; test: Inhibition of CDK2: phospho-Rb (S807/811) HTRF measurement in OVCAR3 cells; format: cell-based; settings: 24 h compound treatment, read-out: pRb (nM), IC50 in pRB(S807/811) assay
Description: Phosphorylation of RB protein at S807/811 were measured using HTRF phospho-RB cellular kits (Cat #64RBS807PEG) from Cisbio.
On Day 1, OVCAR3 (dependent on CDK2) cells were seeded into 96-well tissue-culture treated plates at 20,000 cells/well in 200 μL and incubated overnight at 37° C. in CO2 atmosphere. On Day 2, the cells were treated with test compounds at concentrations from 0.3 to 10,000 nM using HP D300 digital dispenser. Twenty-four hours after compound treatment, cell culture media was removed by flicking the plate and tapping the plate against clean paper towel. Immediately 30 μL 1× lysis buffer was supplemented from the kit and the plate was incubated at room temperature on shaker for 30 min. After homogenization by pipetting up and down, 8 μL cell lysate from 96-well cell culture plate was transferred to 384-well small volume white detection plate. 2 μL premixed detection solution was added and the plate was covered with sealer. To prepare the detection solution, d2 conjugated-phospho-RB antibody and Eu-cryptate conjugated phosphor-RB antibody were diluted into detection buffer following manufacturer's instruction. Detection plates were incubated for 4 h at room temperature and read on ClarioStar (BMG Labtech) in TR-FRET mode (665 nM and 620 nM). The TR-FRET ratio (665 nM/620 nM) was plotted against the compound concentration and normalized to DMSO controls. Half maximal inhibition concentration (IC50) values are calculated with a four-parameter logistic fit using GraphPad Prism (version 8; La Jolla, CA).
In the table below, A indicates a IC50 of less than 0.1 μM; B indicates a IC50 of greater than or equal to 0.1 μM but less than 0.5 μM; C indicates a IC50 of greater than or equal to 0.5 μM but less than 1 μM; and D indicates a […] of greater than or equal to 1 μM but less than 10 μM.

Structure (SMILES)	DC50 (half maximal degradation concentration of CDK2) [1]	IC50 [2] [nM]	DC50 [1] [µM]
O=C1CCC(N2C(=O)c3cc(F)c(N4CCN(Cc5cccc(S(=O)(=O)N6CCC(Nc7ncc(Cl)c(-c8cnn(CC(F)(F)F)c8)n7)CC6)c5)CC4)cc3C2=O)C(=O)N1 (centres unmarked) [Example 9, 5-(4-(3-((4-((5-chloro-4-(1-(2,2,2-trifluoroethyl)-1H-pyrazol-4-yl)-pyrimidin-2-yl)amino)piperidin-1-yl)-sulfonyl)benzyl)piperazin-1-yl)-2-(2,6-dioxopiperidin-3-yl)-6-fluoro-isoindoline-1,3-dione]	no curve	1000 to 10000	
O=C1CCC(N2C(=O)c3cc(F)c(N4CCN(Cc5cccc(S(=O)(=O)N6CCC(Nc7ncc(C(F)(F)F)c(-c8cnn(C9CCOCC9)c8)n7)CC6)c5)CC4)cc3C2=O)C(=O)N1 (centres unmarked) [Example 10, 2-(2,6-dioxopiperidin-3-yl)-5-fluoro-6-(4-(3-((4-((4-(1-(tetrahydro-2H-pyran-4-yl)-1H-pyrazol-4-yl)-5-(trifluoromethyl)-pyrimidin-2-yl)amino)-piperidin-1-yl)-sulfonyl)benzyl)-piperazin-1-yl)iso-indoline-1,3-dione]		< 100	< 0.1
O=C1CCC(N2Cc3cc(N4CCC5(CCN(Cc6cccc(S(=O)(=O)N7CCC(Nc8ncc(C(F)(F)F)c(-c9cnn(CC(F)(F)F)c9)n8)CC7)c6)CC5)CC4)ccc3C2=O)C(=O)N1 (centres unmarked) [Example 12, 3-(1-oxo-5-(9-(3-((4-((4-(1-(2,2,2-trifluoroethyl)-1H-pyrazol-4-yl)-5-(trifluoromethyl)pyrimidin-2-yl)amino)-piperidin-1-yl)sulfonyl)-benzyl)-3,9-diazaspiro[5.5]undecan-3-yl)isoindolin-2-yl)piperidine-2,6-dione]		< 100	< 0.1
O=C1CCC(N2C(=O)c3cc(F)c(N4CCN(Cc5cccc(S(=O)(=O)N6CCC(Nc7nccc(-c8cnn(CC(F)(F)F)c8)n7)CC6)c5)CC4)cc3C2=O)C(=O)N1 (centres unmarked) [Example 17, 2-(2,6-dioxopiperidin-3-yl)-5-fluoro-6-(4-(3-((4-((4-(1-(2,2,2-trifluoroethyl)-1H-pyrazol-4-yl)pyrimidin-2-yl)amino)-piperidin-1-yl)sulfonyl)benzyl)-piperazin-1-yl)isoindoline-1,3-dione]	no curve	1000 to 10000	
O=C1CCC(N2C(=O)c3cc(F)c(N4CCN(Cc5cccc(S(=O)(=O)N6CCC(Nc7ncc(C(F)(F)F)c(-c8cnn(CC(F)F)c8)n7)CC6)c5)CC4)cc3C2=O)C(=O)N1 (centres unmarked) [Example 22, 5-(4-(3-((4-((4-(1-(2,2-difluoroethyl)-1H-pyrazol-4-yl)-5-(trifluoromethyl)-pyrimidin-2-yl)amino)-piperidin-1-yl)sulfonyl)benzyl)piperazin-1-yl)-2-(2,6-dioxopiperidin-3-yl)-6-fluoroiso-indoline-1,3-dione]		100 to 500	< 0.1

Continued, values first:

DC50 (half maximal degradation concentration of CDK2) [1]	IC50 [2] [nM]	DC50 [1] [µM]	Structure (SMILES)
	< 100	< 0.1	O=C1CCC(Nc2ccc(C3CCN(Cc4cccc(S(=O)(=O)N5CCC(Nc6ncc(C(F)(F)F)c(-c7cnn(CC(F)(F)F)c7)n6)CC5)c4)CC3)cc2)C(=O)N1 (centres unmarked) [Example 11, 3-((4-(1-(3-((4-((4-(1-(2,2,2-trifluoro-ethyl)-1H-pyrazol-4-yl)-5-(trifluoro-methyl)pyrimidin-2-yl)amino)-piperidin-1-yl)sulfonyl)benzyl)piperidin-4-yl)-phenyl)amino)-piperidine-2,6-dione]
	< 100	< 0.1	O=C1CCN(c2ccc(N3CCN(Cc4cccc(S(=O)(=O)N5CCC(Nc6ncc(C(F)(F)F)c(-c7cnn(CC(F)(F)F)c7)n6)CC5)c4)CC3)c(F)c2)C(=O)N1 [Example 13, 1-(3-fluoro-4-(4-(3-((4-((4-(1-(2,2,2-trifluoroethyl)-1H-pyrazol-4-yl)-5-(trifluoromethyl)pyrimidin-2-yl)amino)-piperidin-1-yl)sulfonyl)benzyl)-piperazin-1-yl)phenyl)dihydro-pyrimidine-2,4(1H,3H)-dione]
	< 100	< 0.1	O=C1CCC(c2ccc(N3CCN(Cc4cccc(S(=O)(=O)N5CCC(Nc6ncc(C(F)(F)F)c(-c7cnn(CC(F)(F)F)c7)n6)CC5)c4)CC3)c(F)c2)C(=O)N1 (centres unmarked) [Example 14, 3-(3-fluoro-4-(4-(3-((4-((4-(1-(2,2,2-trifluoroethyl)-1H-pyrazol-4-yl)-5-(trifluoromethyl)pyrimidin-2-yl)-amino)piperidin-1-yl)sulfonyl)benzyl)-piperazin-1-yl)phenyl)piperidine-2,6-dione]
	< 100	< 0.1	O=C1CCC(N2Cc3cc(N4CCN(Cc5cccc(S(=O)(=O)N6CCC(Nc7ncc(C(F)(F)F)c(-c8cnn(CC(F)(F)F)c8)n7)CC6)c5)CC4)c(F)cc3C2=O)C(=O)N1 (centres unmarked) [Example 15, 3-(6-fluoro-1-oxo-5-(4-(3-((4-((4-(1-(2,2,2-trifluoroethyl)-1H-pyrazol-4-yl)-5-(trifluoromethyl)pyrimidin-2-yl)-amino)piperidin-1-yl)sulfonyl)benzyl)-piperazin-1-yl)isoindolin-2-yl)-piperidine-2,6-dione]
	1000 to 10000	1 to 10	O=C1CCN(c2ccc(N3CCN(Cc4cccc(S(=O)(=O)N5CCC(Nc6ncc(C(F)(F)F)c(-c7cnn(CC(F)(F)F)c7)n6)CC5)c4)CC3)c(C(F)(F)F)c2)C(=O)N1 [Example 16, 1-(4-(4-(3-((4-((4-(1-(2,2,2-trifluoro-ethyl)-1H-pyrazol-4-yl)-5-(trifluoro-methyl)pyrimidin-2-yl)amino)-piperidin-1-yl)sulfonyl)benzyl)-piperazin-1-yl)-3-(trifluoromethyl)-phenyl)dihydro-pyrimidine-2,4(1H,3H)-dione]
	< 100	< 0.1	O=C1CCC(c2ccc(N3CC4CCC(C3)N4Cc3cccc(S(=O)(=O)N4CCC(Nc5ncc(C(F)(F)F)c(-c6cnn(CC(F)(F)F)c6)n5)CC4)c3)cc2)C(=O)N1 (centres unmarked) [Example 18, 3-(4-(8-(3-((4-((4-(1-(2,2,2-trifluoro-ethyl)-1H-pyrazol-4-yl)-5-(trifluoro-methyl)pyrimidin-2-yl)amino)-piperidin-1-yl)sulfonyl)benzyl)-3,8-diazabicyclo-[3.2.1]octan-3-yl)phenyl)-piperidine-2,6-dione]
	< 100	< 0.1	Cn1c(S(=O)(=O)N2CCC(Nc3ncc(C(F)(F)F)c(-c4cnn(CC(F)(F)F)c4)n3)CC2)cnc1CN1CCN(c2ccc(C3CCC(=O)NC3=O)cc2F)CC1 (centres unmarked) [Example 20, 3-(3-fluoro-4-(4-((1-methyl-5-((4-((4-(1-(2,2,2-trifluoroethyl)-1H-pyrazol-4-yl)-5-(trifluoromethyl)pyrimidin-2-yl)amino)-piperidin-1-yl)sulfonyl)-1H-imidazol-2-yl)methyl)piperazin-1-yl)phenyl)-piperidine-2,6-dione]
	100 to 500	0.1 to 0.5	O=C1CCC(c2ccc(N3CCN(Cc4cccc(S(=O)(=O)N5CCC(Nc6ncc(C(F)(F)F)c(-c7cnn(CC(F)(F)F)c7)n6)CC5)c4)CC3)c(C(F)(F)F)c2)C(=O)N1 (centres unmarked) [Example 23, 3-(4-(4-(3-((4-((4-(1-(2,2,2-trifluoro-ethyl)-1H-pyrazol-4-yl)-5-(trifluoro-methyl)pyrimidin-2-yl)amino)-piperidin-1-yl)sulfonyl)benzyl)-piperazin-1-yl)-3-(trifluoromethyl)-phenyl)piperidine-2,6-dione]
